# In patent US20250177392A1, “BROAD SPECTRUM INHIBITORS OF CYTOMEGALOVIRUS” (MICROBIOTIX, INC., priority 2022, published 2025):
# Assays:
# NHDF cells [1] = test: Cell number by Hoechst stain (cell proliferation); assay type: cell-based, human; conditions: up to 50 μM, 6 day period; cycloheximide 50 μg/mL
# Method: (§1) Fibroblasts were treated with increasing concentrations of MBX-4992 and MBXC-4336 for up to 6 days and cell number was measured periodically using Hoechst stain to quantify cell proliferation (A and B). Cyclohexamide (CHX) and DMSO (−) were used as positive and negative controls for cytotoxicity respectively. Cell cytostaticity (C and D) was assessed using ATP-based CellTiter Glo luciferase assay following extended incubation with increasing concentrations of MBX-4992 and MBXC-4336 for 1 or 6 days. Relative light units (RLU) were measured following cell lysis and normalized to DMSO treated cells for each time point.
# (§2) The CellTiter Glo Luminescent Assay (Promega Inc, Madison, WI) was performed according to the manufacturer's instruction. NHDF cells (10^4) were plated in a 96-well plate overnight and treated with MBX-4992 or MXC-4336 ([…]) in triplicate for up to 6 days. Cyclohexamide (50 μg/mL) was used as a control. CellTiter Glo substrate was added in a 1:1 ratio with media and CellTiter-Glo reagent followed by the analysis of luciferase activity (relative light units, RLU) using a BioTek Synergy H1 microplate reader. In parallel, an identical plate was labelled with Hoescht reagent (25 μg/mL) to quantify the cell number using a Celigo Cytometer.
# (§3) Next, the cytostaticity and cytotoxicity of treatment with MBX-4992 and MBXC-4336 was analyzed. […]
# NHDF cells [2] = test: CellTiter Glo ATP luciferase assay; assay type: cell-based, human; conditions: 0-50 μM, 1 or 6 days; cycloheximide 50 μg/mL
# Method: as §1, §2, §3
# AD169^R CMV virus = test: Plaque reduction (dissemination) assay, prophylactic treatment; assay type: cell-based, Human cytomegalovirus; conditions: 2.5 μM, 10 dpi
# Method: FIG. 8A-H are fluorescence images (A & B) and graphs showing that NAPA compounds MBX-4992 and MBXC-4336 work in both prophylactic and therapeutic settings to inhibit HCMV infection. ARPE-19 cells (A to D) and NHDF cells (E and F) treated with increasing concentrations (0, 1, 5, 20, and 50 μM) of MBX-4992, MBXC-4336, or ganciclovir (2.5 μM) were infected with AD169^R (MOI 0.025) and analyzed for viral plaques of >5,000 μm^2 (C and E) and >10,000 μm^2 (D and F) based on GFP fluorescence. The representative images of plaques from AD169^R-infected ARPE-19 cells treated MBX-4992, MBXC-4336, ganciclovir are shown (A and B). MBX-4992, MBXC-4336 (G and H), and ganciclovir treatment at 48 hpi of AD169^R-infected ARPE-19 cells (MOI 0.025) were analyzed for virus plaques >5,000 μm^2 and >10,000 μm^2 at 10 dpi. The normalized plaque number was designated to be 100 based on plaques from DMSO treated cells. Statistical tests were performed using ordinary one-way ANOVA with multiple comparisons to DMSO treated cells as a control and a Dunnett's post-test; *, p<0.05; **, p<0.01; ***, p<0.001; ****, p<0.0001.
# For the prophylactic treatment analysis, the plaque assay was performed on ARPE-19 and NHDF cells (4×10^4) in a 24-well plate. The cells were pretreated for 1 hour with either MBX-4992 or MBXC-4336 (1-50 μM), DMSO, or ganciclovir (2.5 μM) and followed by virus infection with AD169^R. Following a 2-hour incubation at 37° C., the inoculum was removed and cells were overlaid with 1% low melt sea agarose. Upon solidification of the agarose, MBX-4992, MBXC-4336, DMSO, or ganciclovir in media was added at the indicated concentration. The drugs were replaced every 3 days. The cells were examined using Brightfield and GFP fluorescence to quantify the number and size of virus plaques using a Celigo Cytometer at 10 dpi.
# To address whether NAPA compounds can limit virus dissemination in epithelial cells, we analyzed the inhibitory properties of MBX-4992 and MBXC-4336 using a plaque reduction assay by designating a cluster of virus infected cells as a virus plaque (Parsons et al., Antivir. Res., 193:105124 (2021)) The results are shown in FIG. 8A-H.
# To evaluate the prophylactic function of the NAPA compounds, ARPE-19 cells and NHDF cells treated with DMSO, MBX-4992, MBXC-4336 (0-50 μM), or ganciclovir (2.5 μM) were infected with AD169^R CMV virus and analyzed for virus plaques at 10 dpi based on GFP fluorescence (FIG. 8A-F). A cluster of virus infected cells was designated a viral plaque based on an average cluster area of 5,000 μm^2 or 10,000 μm^2 (FIG. 8A-B) using a Celigo cytometer.
# HCMV GDGr K17 (GCV^R) = test: Herpes virus panel neutralization, GCV-resistant HCMV; assay type: cell-based, Human cytomegalovirus; conditions: Human betaherpesvirus 5
# Method: (§4) To determine the specificity of MBX-4992, additional neutralization experiments were conducted using a panel of herpes viruses performed in the presence of MBX-4992. […] Collectively, the antiviral activity of MBX-4992 is equivalent to that of GCV indicating specific inhibition of CMV replication.
# AD169^R (IE1 expression) = test: Western blot (immunoblot) of IE1 expression in AD169^R-infected cells; assay type: cell-based, Human cytomegalovirus; conditions: NHDF cells, 24 hpi; MBX-4992 1-10 μM, ganciclovir 5 μM, convallotoxin 0.01 μM
# Method: The molecular weight markers and respective proteins are indicated.
# FIGS. 12A and B are Western Blot assays showing that MBXC-4336 limits expression of IE1 in fibroblasts and epithelial cells. Total cell lysates from AD169^R-infected (MOI 0.2) NHDF (A) and ARPE-19 (B) cells pre-treated with DMSO, MBX-4336 (0, 1, 5, 10, or 20 μM), or heparin (50 μg/mL) collected at 48 hpi were subjected to Western blot analysis using a rabbit anti-IE-1 antibody (lanes 1-7) and an anti-GAPDH antibody (lanes 8-14) as a loading control. The molecular weight markers and respective proteins are indicated.
# Total cell lysates from virus infected NHDF cells treated with compounds were created through SDS-lysis (10^4/100 uL of 1% SDS) of at least three rounds of heating at 95° C. for 3 min and vigorous agitation. The total cell lysates were resolved using an SDS-polyacrylamide gel (12.5%), transferred to a PVDF membrane using a semi-dry apparatus. The membrane was then incubated with 1% BSA/PBS for 1 hr at room temperature followed by incubation with anti-IE1 and anti-GAPDH. Finally, the respective secondary antibody conjugated with HRP was incubated with membrane followed by detection using ECL reagents (Millipore).
# Next, inhibition of the expression of IE1 in AD169^R-infected cells treated with MBX-4992 was examined by immunoblot analysis (FIG. 4E). […] Collectively, these findings further indicate that MBX-4992 effectively prevents the expression of the immediate-early genes during a CMV infection.
# HCMV AD169 = test: Herpes virus panel neutralization, HCMV AD169; assay type: cell-based, Human cytomegalovirus; conditions: Human betaherpesvirus 5; HCMV AD169; read-out: IC50
# Method: as §4
# MCMV Smith = test: Herpes virus panel neutralization, MCMV; assay type: cell-based, Murine cytomegalovirus; conditions: Murid betaherpesvirus 1; MCMV Smith; read-out: IC50
# Method: as §4
# TB40/E = test: Plaque assay, MBX-4992 and ganciclovir alone and in combination; assay type: cell-based, Human cytomegalovirus; conditions: ARPE-19 and NHDF cells, 10 dpi; MBX-4992 1-20 μM, ganciclovir 2.5 μM
# Method: At 10 day post-infection, representative whole well images of plaques >10,000 μm^2 (A and B) were quantified based on GFP fluorescence intensity and calculated relative to DMSO controls (C and D). Statistical tests were performed using ordinary one-way ANOVA with multiple comparisons to DMSO treated cells as a control and a Dunnett's post-test. *, p<0.05; **, p<0.01; ***, p<0.001; ****, p<0.0001.
# At 10 days post-infection, representative whole well images of plaques >10,000 μm^2 (A and B) were quantified based on GFP fluorescence intensity and calculated relative to DMSO controls (C and D).
# AD169^R [3] = test: Cells pre-incubation / washout study; assay type: cell-based, Human cytomegalovirus; conditions: cells pre-treated; drugs not removed or added back to washed-out cells
# Method: (C) NHDF cells were pre-incubated with DMSO, MBX-4992 or heparin prior to virus addition. After addition of AD169^R (MOI 0.2) for 30 min, media was either unchanged or replaced with media containing DMSO, MBX-4992, or heparin. Virus infection was quantified at 24 hpi by GFP fluorescence. Percent infection was normalized to untreated cells. Statistical tests were performed using ordinary one-way ANOVA with multiple comparisons to DMSO treated cells as a control and a Dunnett's post-test: *, p<0.05; ****, p<0.0001.
# NHDF cells (10^4) plated overnight in a 96-well plate were pretreated with MBX-4992 (10 μM), heparin (50 μg/mL) or DMSO for 1 hour at 37° C. The plate was then placed at 4° C. for 5 minutes followed by the addition of AD169^R CMV virus for 30 minutes. 2/3rd of the samples were aspirated post binding. Half of those samples received DMSO media, regardless of the drug the cells were previously exposed to. The remaining wells received either MBX-4992 (10 μM) or Heparin (50 μg/mL) overnight. At 18 hpi, the cells were fixed with 4% paraformaldehyde, stained with a rabbit anti-IE1 antibody followed by an anti-rabbit Alexa 647, and analyzed using the Celigo cytometer. The DMSO condition that was not aspirated post binding was set as 100% infection.
# We next examined whether pre-treating cells with MBX-4992 can limit virus infection. Cells were pre-treated with MBX-4992 or heparin for […] followed by the addition of AD169^R for 30 min at 4° C. The cells were either washed out or unchanged as indicated and replaced with media containing DMSO, MBX-4992, or heparin followed by incubation at 37° C. At 18 hpi, virus infection was evaluated using a Celigo cytometer.
# AD169^R [4] = test: Virus pre-incubation / washout study; assay type: cell-based, Human cytomegalovirus; conditions: virus pre-incubated, compound washed out; MBX-4992 10 μM, heparin 50 μg/ml
# Method: (B) Based on the schematic, AD169^R (MOI 0.2) was pre-incubated with DMSO, MBX-4992, or heparin for one hour before being added to NHDF cells. Virus/compound mix was washed out after 30 minutes as indicated and either unchanged or replaced with media containing DMSO, MBX-4992, or heparin. Virus infection was quantified at 24 hpi GFP fluorescence. Percent infection was normalized to untreated cells.
# NHDF cells (10^4) plated overnight in a 96-well plate were incubated at 4° C. for 30 minutes with AD169^R CMV virus pretreated with MBX-4992 (10 μM), Heparin (50 μg/mL) or DMSO for 1 hour at room temperature (in triplicate). For 2/3rd of the samples, media was aspirated and half of the wells received DMSO media, regardless of which drug the virus was exposed to, or MBX-4992 (10 μM), or Heparin (50 μg/mL) overnight. At 18 hpi, the cells were fixed with 4% paraformaldehyde, stained with a rabbit anti-IE1 antibody followed by an anti-rabbit Alexa 647, and analyzed using the Celigo cytometer. The DMSO condition that was not aspirated post binding was set as 100% infection.
# To further characterize the mechanism of action, pre-incubation/washout studies were performed using AD169^R and MBX-4992. […] At 18 hpi, cells were immunostained with an anti-IE1 antibody as a readout for infection and quantified using a Celigo cytometer. […]
compound,measurement,setting,value
"C[C@@H]1C[C@@H]([C@H](O)CC2CC(=O)NC(=O)C2)C(=O)[C@@H](C)C1 [cycloheximide, reference compound]",cell number,NHDF cells [1],dramatic decrease in cell number and luciferase activity
same,luciferase signal (ATP levels),NHDF cells [2],dramatic decrease in cell number and luciferase activity
"Nc1nc(O)c2ncn(COC(CO)CO)c2n1 [ganciclovir, reference compound]",reduction of plaque number,AD169^R CMV virus,~50%
same,IC50,HCMV GDGr K17 (GCV^R),10400 nM
same,IE1 expression by immunoblot,AD169^R (IE1 expression),did not impact infection
same,IC50,HCMV AD169,900 nM
same,IC50,MCMV Smith,200 nM
same,"viral plaques >10,000 μm^2, single drug",TB40/E,decreased
heparin [reference compound],"virus infection, drug not removed or added back",AD169^R [3],significantly inhibited virus infection
same,decrease of infection after washing out,AD169^R [4],positive control for inhibition
